From US9567569B2, “Methods of culturing and expanding mesenchymal stem cells” (Gamida Cell Ltd., priority 2012, dated 2017)
“Also recorded” adds a separate entry of the source.

What was measured:
[1] = tested on: Human bone marrow derived mesenchymal cells; test: FACS measurement of CD45, CD105 and VCAM1/CD106 on cultured mesenchymal stem cells; assay type: cell-based; conditions: with vs without SR1 under identical conditions
Method: (§1) Isolation—Human bone marrow derived mesenchymal cells were isolated based on their plastic adherence potential in expansion medium containing: High glucose DMEM and 10% Fetal Bovine Serum (FBS, Hyclone, Logan, Utah, USA), 0.05 mg/ml Gentamicin (Sigma) and 2 mM L-glutamine (Biological Industries, Israel). Cells were allowed to adhere for 3-4 days and non-adherent cells were washed out with medium changes. Expansion—Mesenchymal stem cells were isolated using plastic adherence method, as described above and cultured for several passages in a medium which comprises fetal bovine serum in the presence or absence of SR1 for three passages (StemRegenin1, BioVision cat#1967-1). Measurement of CD45, CD105 and VCAM1/CD106: following Trypsin treatment the cells were analyzed for CD45, CD105 or CD106 expression in FACS using anti-human CD45 FITC, CD105 PE or CD106 APC antibodies.

[2] = biological target: T1, aryl hydrocarbon receptor (AhR) (Homo sapiens, UniProt P35869); conditions: cited from earlier work
T1 sequence (P35869 11-848): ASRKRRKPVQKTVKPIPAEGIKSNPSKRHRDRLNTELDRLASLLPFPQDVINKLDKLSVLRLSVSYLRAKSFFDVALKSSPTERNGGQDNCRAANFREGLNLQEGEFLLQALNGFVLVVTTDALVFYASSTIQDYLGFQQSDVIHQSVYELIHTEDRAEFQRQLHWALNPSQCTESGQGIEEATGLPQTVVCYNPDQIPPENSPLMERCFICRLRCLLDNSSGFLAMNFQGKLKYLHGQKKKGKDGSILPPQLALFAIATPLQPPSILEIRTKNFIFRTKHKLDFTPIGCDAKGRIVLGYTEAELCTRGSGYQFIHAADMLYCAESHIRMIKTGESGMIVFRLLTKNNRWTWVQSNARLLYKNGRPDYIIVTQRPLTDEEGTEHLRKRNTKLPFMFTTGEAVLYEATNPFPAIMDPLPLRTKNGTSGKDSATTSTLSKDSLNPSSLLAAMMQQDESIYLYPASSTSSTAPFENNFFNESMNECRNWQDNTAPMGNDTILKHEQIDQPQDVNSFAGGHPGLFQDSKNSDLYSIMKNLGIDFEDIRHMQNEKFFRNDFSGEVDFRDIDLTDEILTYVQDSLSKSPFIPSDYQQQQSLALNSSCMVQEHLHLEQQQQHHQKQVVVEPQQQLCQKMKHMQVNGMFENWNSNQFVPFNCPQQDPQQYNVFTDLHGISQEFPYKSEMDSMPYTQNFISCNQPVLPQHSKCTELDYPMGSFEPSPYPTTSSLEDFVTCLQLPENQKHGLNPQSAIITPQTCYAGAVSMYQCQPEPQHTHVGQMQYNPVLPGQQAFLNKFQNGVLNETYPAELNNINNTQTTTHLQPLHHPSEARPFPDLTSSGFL

[3] = tested on: Human bone marrow derived mesenchymal cells; test: Expansion of mesenchymal stem cells in culture in the presence or absence of SR1 (cell counts, doubling time); assay type: cell-based
Method: as §1, with “Three concentrations 250, 1000 and 2500 nM” for “Measurement”, “SR1 were examined. At about 80% confluence, adherent” for “CD45, CD105 and VCAM1/CD106: following Trypsin treatment the”, “collected following trypsin treatment, counted, characterized and re-seeded at a concentration of 1×10^3 cells/cm^2.” for “analyzed for CD45, CD105 or CD106 expression in FACS using anti-human CD45 FITC, CD105 PE or CD106 APC antibodies.”

CD34+ cells = conditions: cited from earlier work

CC(C)n1cnc2c(NCCc3ccc(O)cc3)nc(-c3csc4ccccc34)nc21 [SR1, 4-(2-(2-(benzo[b]thiophen-3-yl)-9-isopropyl-9H-purin-6-ylamino)ethyl)phenol]
CD45 and CD105 levels (percentage of CD105+CD45- cells) ([1]; FIG. 4): same CD45 and CD105 levels
VCAM1/CD106 expression (percentage of CD106+ cells) ([1]; FIG. 5): increase the fraction of CD106+ cells; also recorded: express more VCAM1/CD106 adhesion molecule
action on the aryl hydrocarbon receptor [2]: antagonizing
effect on the proliferation of mesenchymal stem cells (cumulative count) ([3]; SR1 250, 1000 and 2500 nM vs control, three passages, FIGS. 1-3): proliferate more rapidly; also recorded: positive effect
most effective concentration for proliferation of mesenchymal stem cells ([3]; of 250, 1000 and 2500 nM examined): 250 nM
doubling time of mesenchymal stem cells ([3]; passage 2, with vs without SR1, FIG. 3): decreased
time for cultures to reach confluence ([3]; with vs without SR1): substantially shorter period of time
ex vivo expansion of CD34+ cells (CD34+ cells): promote the ex vivo expansion of CD34+ cells
